Measured values reported in US6548495B2, “Dihydro-benzo [B] [1,4] diazepin-2-one derivatives” (Hoffmann-La Roche Inc., priority 2002, dated 2003).

Key:
[1] = molecular target: T1, recombinant rat mGluR2 expressed in CHO cells (Rattus norvegicus, UniProt P31421); assay: [3H]-LY354740 binding on mGlu2 transfected CHO cell membranes (displacement binding assay); conditions: displacement of 10 nM [3H]-LY354740, membranes of CHO cells expressing rat mGlu2, room temperature, 1 hour; Ki calculated from IC50 with the Cheng and Prusoff equation
T1 construct: expressed in transfected cells; host or cells: CHO cells, stably transfected with pcD1mGR2 (pcDNA I-amp), G-418 selected; membranes used
Source text: In Table I below some specific Ki values of preferred compounds of the invention are presented. These values were obtained by indirect measurement of the affinity of the compounds for the recombinant rat mGluR2 expressed in CHO cells using a displacement binding assay with 3H-LY354740.
[^3H]-LY354740 Binding on mGlu2 Transfected CHO Cell Membranes
Transfection and Cell Culture
cDNA encoding the rat mGlu2 receptor protein in pBluescript II was obtained from Prof. S. Nakanishi (Kyoto, Japan), and subcloned into the eukaryotic expression vector pcDNA I-amp from Invitrogen (NV Leek, The Netherlands). This vector construct (pcD1mGR2) was co-transfected with a psvNeo plasmid encoding the gene for neomycin resistance, into CHO cells by a modified calcium phosphate method described by Chen & Okayama (1988). The cells were maintained in Dulbecco's Modified Eagle medium with reduced L-glutamine (2 mM final concentration) and 10% dialysed foetal calf serum from Gibco BRL (Basel, Switzerland). Selection was made in the presence of G-418 (1000 ug/mL final). Clones were identified by reverse transcription of 5 μg total RNA, followed by PCR using mGlu2 receptor specific primers 5′-[…]-3′ and 5′-[…]-3′ in 60 mM Tris HCl (pH 10), 15 mM (NH4)2SO4, 2 mM MgCl2, 25 units/mL Taq Polymerase with 30 cycles annealing at 60° C. for 1 min., extention at 72° C. for 30 s, and 1 min. 95° C. denaturation.
Cells, cultured as above, were harvested and washed three times with cold PBS and frozen at −80° C. The pellet was resuspended in cold 20 mM HEPES-NaOH buffer containing 10 mM EDTA (pH 7.4), and homogenised with a polytron (Kinematica, AG, Littau, Switzerland) for 10 s at 10000 rpm. After centrifugation for 30 min. at 4° C., the pellet was washed once with the same buffer, and once with cold 20 mM HEPES-NaOH buffer containing 0.1 mM EDTA, (pH 7.4). Protein content was measured using the Pierce method (Socochim, Lausanne, Switzerland) using bovine serum albumin as standard.
After thawing, the membranes were resuspended in cold 50 mM Tris-HCl buffer containing 2 mM MgCl2 and 2 mM CaCl2, (pH 7) (binding buffer). The final concentration of the membranes in the assays was 25 μg protein/mL. Inhibition experiments were performed with membranes incubated with 10 nM [^3H]-LY354740 at room temperature, for 1 hour, in presence of various concentrations of the compound to be tested. Following the incubations, membranes were filtered onto Whatmann GF/C glass fiber filters and washed 5 times with cold binding buffer. Non specific binding was measured in the presence of 10 μM DCG IV. After transfer of the filters into plastic vials containing 10 mL of Ultima-gold scintillation fluid (Packard, Züirich, Switzerland), the radioactivity was measured by liquid scintillation in a Tri-Carb 2500 TR counter (Packard, Züirich, Switzerland).
The inhibition curves were fitted with a four parameter logistic equation giving IC50 values, and Hill coefficients and the Ki values were calculated using the Cheng and Prusoff equation (Cheng, Y. and Prusoff, W. H., Biochem. Pharmacol. 1973, 22, 3099-3108). A small Ki value expresses high affinity of the compound towards the receptor.

T1 sequence (P31421 19-872): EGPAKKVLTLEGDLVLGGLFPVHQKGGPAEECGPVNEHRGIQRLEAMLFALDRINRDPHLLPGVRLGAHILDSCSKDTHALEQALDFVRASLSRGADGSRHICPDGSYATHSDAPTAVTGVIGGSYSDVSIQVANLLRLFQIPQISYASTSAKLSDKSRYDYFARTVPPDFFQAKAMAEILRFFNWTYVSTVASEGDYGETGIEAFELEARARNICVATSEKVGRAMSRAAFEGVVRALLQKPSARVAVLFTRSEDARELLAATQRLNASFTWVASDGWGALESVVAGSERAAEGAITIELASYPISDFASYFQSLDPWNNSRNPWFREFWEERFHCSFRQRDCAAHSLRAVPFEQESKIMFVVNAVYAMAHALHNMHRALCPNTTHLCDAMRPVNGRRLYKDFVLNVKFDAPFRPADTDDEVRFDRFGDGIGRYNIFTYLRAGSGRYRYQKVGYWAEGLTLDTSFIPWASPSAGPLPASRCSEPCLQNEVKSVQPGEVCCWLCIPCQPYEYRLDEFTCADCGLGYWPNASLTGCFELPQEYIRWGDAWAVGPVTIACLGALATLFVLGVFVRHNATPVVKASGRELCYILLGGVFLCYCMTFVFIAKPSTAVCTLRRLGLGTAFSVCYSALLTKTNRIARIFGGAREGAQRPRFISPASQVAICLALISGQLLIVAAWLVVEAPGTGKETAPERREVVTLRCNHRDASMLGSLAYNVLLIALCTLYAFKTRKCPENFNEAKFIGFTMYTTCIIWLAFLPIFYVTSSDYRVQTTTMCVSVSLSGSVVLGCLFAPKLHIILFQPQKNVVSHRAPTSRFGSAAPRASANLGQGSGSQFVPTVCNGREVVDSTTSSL

| Compound | Ki [1] [nM] | melting point [°C] |
| --- | --- | --- |
| Cc1cc(-c2cccc(C3=Nc4cc(N5CCSCC5)c(C#N)cc4NC(=O)C3)c2)on1 [Example 62, 2-[3-(3-Methyl-isoxazol-5-yl)-phenyl]-4-oxo-8-thiomorpholin-4-yl-4,5-dihydro-3H-benzo[b][1,4]diazepine-7-carbonitrile] | 32.5 | 245 |
| NC(=O)c1coc(-c2cccc(C3=Nc4ccc(-n5cccc5)cc4NC(=O)C3)c2)n1 [Example 27, 2-[3-(4-oxo-7-Pyrrol-1-yl-4,5-dihydro-3H-benzo[b][1,4]diazepin-2-yl)-phenyl]-oxazole-4-carboxylic Acid Amide] | 62 | 232 to 234 |
| COc1cc2c(cc1-n1cccc1C(C)(C)C)NC(=O)CC(c1cccc(C#N)c1)=N2 [Example 18, 3-[7-(2-tert.-Butyl-pyrrol-1-yl)-8-methoxy-4-oxo-4,5-dihydro-3H-benzo[b][1,4]diazepin-2-yl]-benzonitrile] | 80 | > 250 |
| N#Cc1cccc(C2=Nc3cc(I)c(-n4cccc4)cc3NC(=O)C2)c1 [Example 9, 3-(8-Iodo-4-oxo-7-pyrrol-1-yl-4,5-dihydro-3H-benzo[b][1,4]diazepin-2-yl)-benzonitrile] | 75 | 215 |
| O=C1CC(c2cccc(-n3nncc3CO)c2)=Nc2cc(N3CCOCC3)c(C(F)(F)F)cc2N1 [Example 1, 4-[3-(5-Hydroxymethyl-[1,2,3]triazol-1-yl)-phenyl]-7-morpholin-4-yl-8-trifluoromethyl-1,3-dihydro-benzo[b][1,4]diazepin-2-one] | 74 | 200 |
| N#Cc1cccc(C2=Nc3ccc(-n4cccc4)cc3NC(=O)C2)c1 [Example 4, 3-(4-oxo-7-Pyrrol-1-yl-4,5-dihydro-3H-benzo[b][1,4]diazepin-2-yl)-benzonitrile] | 35 | 219 |

These reach a lower Ki [1]. Values come first.

| Ki [1] [nM] | melting point [°C] | Compound |
| --- | --- | --- |
| 8 | 233 | CCOc1cc2c(cc1C(F)(F)F)NC(=O)CC(c1ccnc(C#N)c1)=N2 [Example 53, 4-(8-Ethoxy-4-oxo-7-trifluoromethyl-4,5-dihydro-3H-benzo[b][1,4]diazepin-2-yl)-pyridine-2-carbonitrile] |
| 7.5 | 206 to 209 | O=C1CC(c2cccc(-n3ccnn3)c2)=Nc2ccc(-n3cccc3)cc2N1 [Example 21, 8-Pyrrol-1-yl-4-(3-[1,2,3]triazol-1-yl-phenyl)-1,3-dihydro-benzo[b][1,4]diazepin-2-one] |
| 25 | 220 | O=C1CC(c2cccc(-n3ccnc3)c2)=Nc2ccc(-n3cccc3)cc2N1 [Example 16, 4-(3-Imidazol-1-yl-phenyl)-8-pyrrol-1-yl-1,3-dihydro-benzo[b][1,4]diazepin-2-one] |
| 8.5 | 235 | Cc1cc2c(cc1C(F)(F)F)NC(=O)CC(c1ccnc(C#N)c1)=N2 [Example 58, 4-(8-Methyl-4-oxo-7-trifluoromethyl-4,5-dihydro-3H-benzo[b][1,4]diazepin-2-yl)-pyridine-2-carbonitrile] |
| 23 | 251 to 253 | O=C1CC(c2cccc(-c3ncco3)c2)=Nc2ccc(-n3cccc3)cc2N1 [Example 22, 4-(3-Oxazol-2-yl-phenyl)-8-pyrrol-1-yl-1,3-dihydro-benzo[b][1,4]diazepin-2-one] |
